Values joined by “and” are separate entries in the source; they are usually repeats but may differ in a detail not shown here. Equal entries are not always repeated. Inconclusive results and toxic doses are left out. Cut-off read from the data, not from the text of the source: active = T/C of 150% or more; inactive = T/C below 125%.
Test system: L1210 leukemia ip in BDF1 mice, survival T/C
Test: NCI In Vivo Anticancer Drug Screen. Data for tumor model L1210 Leukemia (intraperitoneal) in B6D2F1 (BDF1) mice
Settings: endpoint: mean survival time, higher = longer survival
How it was run: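 Tumor cells were implanted, animals were treated, and survival was followed. The result divides the treated measurement by the vehicle-control measurement.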

[1] = dose: 12.5 mg/kg/injection, schedule: Q04DX003 (ip), vehicle: saline
[2] = dose: 25.0 mg/kg/injection, schedule: Q04DX003 (ip), vehicle: saline
[3] = dose: 50.0 mg/kg/injection, schedule: Q04DX003 (ip), vehicle: saline
[4] = dose: 100.0 mg/kg/injection, schedule: Q04DX003 (ip), vehicle: saline with Tween-80
[5] = dose: 200.0 mg/kg/injection, schedule: Q04DX003 (ip), vehicle: saline with Tween-80
[6] = dose: 400.0 mg/kg/injection, schedule: Q04DX003 (ip), vehicle: saline with Tween-80
[7] = dose: 100.0 mg/kg/injection, schedule: Q01DX009 (ip), vehicle: Klucel (hydroxypropylcellulose) (HPC)
[8] = dose: 200.0 mg/kg/injection, schedule: Q01DX009 (ip), vehicle: Klucel (hydroxypropylcellulose) (HPC)
[9] = dose: 400.0 mg/kg/injection, schedule: Q01DX009 (ip), vehicle: Klucel (hydroxypropylcellulose) (HPC)
[10] = dose: 100.0 mg/kg/injection, schedule: Q04DX003 (ip), vehicle: Klucel (hydroxypropylcellulose) (HPC)
[11] = dose: 200.0 mg/kg/injection, schedule: Q04DX003 (ip), vehicle: Klucel (hydroxypropylcellulose) (HPC)
[12] = dose: 400.0 mg/kg/injection, schedule: Q04DX003 (ip), vehicle: Klucel (hydroxypropylcellulose) (HPC)
[13] = dose: 100.0 mg/kg/injection, schedule: Q04DX002 (ip), vehicle: Klucel (hydroxypropylcellulose) (HPC)
[14] = dose: 400.0 mg/kg/injection, schedule: Q04DX002 (ip), vehicle: Klucel (hydroxypropylcellulose) (HPC)
[15] = dose: 200.0 mg/kg/injection, schedule: Q04DX002 (ip), vehicle: Klucel (hydroxypropylcellulose) (HPC)
[16] = dose: 100.0 mg/kg/injection, schedule: Q01DX009 (ip), vehicle: saline with Tween-80
[17] = dose: 200.0 mg/kg/injection, schedule: Q01DX009 (ip), vehicle: saline with Tween-80
[18] = dose: 400.0 mg/kg/injection, schedule: Q01DX009 (ip), vehicle: saline with Tween-80
[19] = dose: 100.0 mg/kg/injection, schedule: Q01DX001 (ip), vehicle: carboxymethylcellulose (CMC)

Measured: T/C

COC(=O)C1=CCCN(C)C1
inactive: dose: 3.12 mg/kg/injection, schedule: Q01DX009 (ip), vehicle: saline 103 % of control | dose: 6.25 mg/kg/injection, schedule: Q01DX009 (ip), vehicle: saline 101 % of control | dose: 12.5 mg/kg/injection, schedule: Q01DX009 (ip), vehicle: saline 98 % of control | [1] 93 % of control | dose: 20.0 mg/kg/injection, schedule: Q01DX009 (ip), vehicle: saline 93 % of control | dose: 20.0 mg/kg/injection, schedule: Q04DX003 (ip), vehicle: saline 97 % of control | dose: 25.0 mg/kg/injection, schedule: Q01DX009 (ip), vehicle: saline 98 % of control | [2] 95 % of control and 94 % of control | dose: 40.0 mg/kg/injection, schedule: Q01DX009 (ip), vehicle: saline 92 % of control | dose: 40.0 mg/kg/injection, schedule: Q04DX003 (ip), vehicle: saline 94 % of control | dose: 50.0 mg/kg/injection, schedule: Q01DX009 (ip), vehicle: saline 106 % of control | [3] 103 % of control and 94 % of control | dose: 80.0 mg/kg/injection, schedule: Q01DX009 (ip), vehicle: saline 90 % of control | dose: 80.0 mg/kg/injection, schedule: Q04DX003 (ip), vehicle: saline 100 % of control

CCCCCCCCCCC1CCCC1
inactive: dose: 100.0 mg/kg/injection, schedule: Q04DX002 (ip), vehicle: saline with Tween-80 94 % of control | dose: 200.0 mg/kg/injection, schedule: Q04DX002 (ip), vehicle: saline with Tween-80 98 % of control | dose: 400.0 mg/kg/injection, schedule: Q04DX002 (ip), vehicle: saline with Tween-80 94 % of control

CC(C)(C)c1ccc(C(=O)O)cc1Br
inactive: dose: 50.0 mg/kg/injection, schedule: Q04DX003 (ip), vehicle: other 104 % of control | dose: 100.0 mg/kg/injection, schedule: Q04DX003 (ip), vehicle: other 113 % of control | dose: 200.0 mg/kg/injection, schedule: Q04DX003 (ip), vehicle: other 98 % of control

O=C(OCC(OC(=O)c1ccccc1)C1OCC(OC(=O)c2ccccc2)C1OC(=O)c1ccccc1)c1ccccc1 (stereo not given)
inactive: [4] 88 % of control | [5] 88 % of control | [6] 88 % of control

Cc1ccccc1SC(=O)Nc1cc(C(F)(F)F)ccc1Cl
inactive: [7] 100 % of control | [8] 98 % of control | [9] 100 % of control

CCOC(=O)CCC(C(=O)OCC)c1nc2ccccc2[nH]c1=O (stereo not given)
inactive: [10] 108 % of control | [11] 108 % of control | [12] 96 % of control

CCOc1ccc(NC(=O)c2cc(C(=O)O)c(C(=O)Nc3ccc(OCC)cc3)cc2C(=O)O)cc1
inactive: [13] 109 % of control | [14] 109 % of control

CCN(CCCl)CC1C(c2ccccc2)C1c1ccccc1 (stereo not given)
inactive: dose: 25.0 mg/kg/injection, schedule: Q04DX002 (ip), vehicle: Klucel (hydroxypropylcellulose) (HPC) 94 % of control | dose: 50.0 mg/kg/injection, schedule: Q04DX002 (ip), vehicle: Klucel (hydroxypropylcellulose) (HPC) 87 % of control

O=C1C(C2OC2c2ccccc2)CCCC1C1OC1c1ccccc1 (stereo not given)
inactive: dose: 100.0 mg/kg/injection, schedule: Q01DX009 (ip), vehicle: saline sonified 94 % of control | [10] 97 % of control | dose: 200.0 mg/kg/injection, schedule: Q01DX009 (ip), vehicle: saline sonified 97 % of control | [11] 98 % of control | dose: 400.0 mg/kg/injection, schedule: Q01DX009 (ip), vehicle: saline sonified 103 % of control | [12] 97 % of control

[Cl][Pd]([Cl])([Cl])[Cl]
inactive: [1] 95 % of control | [2] 98 % of control | [3] 102 % of control | dose: 100.0 mg/kg/injection, schedule: Q04DX003 (ip), vehicle: saline 90 % of control

O=S1(=O)CC(Cl)(Br)C1 (tested in a mixture with another compound)
inactive: [13] 94 % of control | [15] 97 % of control | [14] 89 % of control

O=C(COc1cc(Cl)c(Cl)cc1Cl)NCCO
inactive: [13] 92 % of control | [15] 110 % of control | [14] 108 % of control

O=[N+]([O-])c1ccn(O)c(=NC2CCCCC2)c1
inactive: dose: 100.0 mg/kg/injection, schedule: Q01DX001 (ip), vehicle: saline 98 % of control | dose: 200.0 mg/kg/injection, schedule: Q01DX001 (ip), vehicle: saline 93 % of control | dose: 400.0 mg/kg/injection, schedule: Q01DX001 (ip), vehicle: saline 100 % of control

O=C(Nc1cccc(F)c1)Nc1cccc(C(F)(F)F)c1
inactive: [7] 96 % of control | [8] 95 % of control | [9] 105 % of control

O=C(OCc1ccccc1)c1ccccc1
inactive: [16] 98 % of control | [17] 105 % of control | [18] 93 % of control

NC(N)=N/N=C\c1ccc2ccccc2c1
inactive: [4] 100 % of control | [6] 88 % of control

CCOc1cc[n+]([O-])cc1C
inactive: dose: 50.0 mg/kg/injection, schedule: Q01DX001 (ip), vehicle: carboxymethylcellulose (CMC) 102 % of control | [19] 98 % of control

O=C(COc1ccccc1)Nc1cccnc1
inactive: dose: 100.0 mg/kg/injection, schedule: Q01DX001 (ip), vehicle: Klucel (hydroxypropylcellulose) (HPC) 94 % of control | dose: 200.0 mg/kg/injection, schedule: Q01DX001 (ip), vehicle: Klucel (hydroxypropylcellulose) (HPC) 102 % of control

C/C(Cc1cc(C)nc(N)n1)=N\Nc1ccccc1
inactive: dose: 6.25 mg/kg/injection, schedule: Q01DX009 (ip), vehicle: Klucel (hydroxypropylcellulose) (HPC) 93 % of control | dose: 12.5 mg/kg/injection, schedule: Q01DX009 (ip), vehicle: Klucel (hydroxypropylcellulose) (HPC) 115 % of control | dose: 25.0 mg/kg/injection, schedule: Q01DX009 (ip), vehicle: Klucel (hydroxypropylcellulose) (HPC) 91 % of control

CCN(CCCl)c1ccc(/C=C/C2=[N+](C)c3ccccc3C2(C)C)c(C)c1
inactive: dose: 0.78 mg/kg/injection, schedule: Q01DX009 (ip), vehicle: saline 106 % of control | dose: 1.56 mg/kg/injection, schedule: Q01DX009 (ip), vehicle: saline 97 % of control | dose: 3.13 mg/kg/injection, schedule: Q01DX009 (ip), vehicle: saline 112 % of control | dose: 6.25 mg/kg/injection, schedule: Q04DX003 (ip), vehicle: saline 96 % of control | [1] 86 % of control

CCCCC=C(C1CCCCC1)C1CCCCC1
inactive: dose: 75.0 mg/kg/injection, schedule: Q01DX001 (ip), vehicle: saline 104 % of control | dose: 75.0 mg/kg/injection, schedule: Q04DX003 (ip), vehicle: saline 92 % of control | dose: 150.0 mg/kg/injection, schedule: Q01DX001 (ip), vehicle: saline 93 % of control | dose: 150.0 mg/kg/injection, schedule: Q04DX003 (ip), vehicle: saline 101 % of control | dose: 300.0 mg/kg/injection, schedule: Q01DX001 (ip), vehicle: saline 91 % of control | dose: 300.0 mg/kg/injection, schedule: Q04DX003 (ip), vehicle: saline 100 % of control

NC(=O)CC(NC(=O)OCc1ccccc1)c1nn[nH]n1 (stereo not given)
inactive: [16] 104 % of control | [4] 91 % of control | [17] 106 % of control | [5] 102 % of control | [18] 98 % of control | [6] 91 % of control

COC1OC2COC(C)(C)OC2C1OS(=O)(=O)c1ccc(C)cc1 (stereo not given)
inactive: [19] 104 % of control | dose: 200.0 mg/kg/injection, schedule: Q01DX001 (ip), vehicle: carboxymethylcellulose (CMC) 96 % of control | dose: 400.0 mg/kg/injection, schedule: Q01DX001 (ip), vehicle: carboxymethylcellulose (CMC) 107 % of control

CCCCOC(c1ccc2c(c1)OCO2)C(C)Br (stereo not given)
inactive: [4] 94 % of control | [5] 94 % of control | [6] 97 % of control

From PubChem BioAssay AID248 (DTP/NCI, 2004)
